Experimental data as given in PubChem BioAssay AID248 (DTP/NCI, 2004).
Several values for one entry are separate records, joined by “and”; a condition that tells them apart may be missing. Identical values can stand only once. Inconclusive results and toxic doses are left out.

Tested on: L1210 leukemia ip in BDF1 mice, survival T/C
Experiment: NCI In Vivo Anticancer Drug Screen. Data for tumor model L1210 Leukemia (intraperitoneal) in B6D2F1 (BDF1) mice
Details: higher = longer survival
In short: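 Transplantable tumor model; survival measured in treated vs vehicle control mice. Value = treated/control.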

[1] = endpoint: mean survival time, dose: 50.0 mg/kg/injection, schedule: Q01DX009 (ip), vehicle: saline
[2] = endpoint: mean survival time, dose: 100.0 mg/kg/injection, schedule: Q04DX003 (ip), vehicle: saline
[3] = endpoint: mean survival time, dose: 100.0 mg/kg/injection, schedule: Q01DX009 (ip), vehicle: Klucel (hydroxypropylcellulose) (HPC)
[4] = endpoint: mean survival time, dose: 200.0 mg/kg/injection, schedule: Q01DX009 (ip), vehicle: Klucel (hydroxypropylcellulose) (HPC)
[5] = endpoint: mean survival time, dose: 400.0 mg/kg/injection, schedule: Q01DX009 (ip), vehicle: Klucel (hydroxypropylcellulose) (HPC)
[6] = endpoint: mean survival time, dose: 100.0 mg/kg/injection, schedule: Q01DX009 (ip), vehicle: saline
[7] = endpoint: mean survival time, dose: 200.0 mg/kg/injection, schedule: Q01DX009 (ip), vehicle: saline
[8] = endpoint: mean survival time, dose: 400.0 mg/kg/injection, schedule: Q01DX009 (ip), vehicle: saline
[9] = endpoint: mean survival time, dose: 50.0 mg/kg/injection, schedule: Q01DX001 (ip), vehicle: saline
[10] = endpoint: mean survival time, dose: 100.0 mg/kg/injection, schedule: Q01DX001 (ip), vehicle: saline
[11] = endpoint: mean survival time, dose: 400.0 mg/kg/injection, schedule: Q01DX001 (ip), vehicle: saline
[12] = endpoint: mean survival time, dose: 100.0 mg/kg/injection, schedule: Q01DX009 (ip), vehicle: saline with Tween-80
[13] = endpoint: mean survival time, dose: 200.0 mg/kg/injection, schedule: Q01DX009 (ip), vehicle: saline with Tween-80
[14] = endpoint: mean survival time, dose: 50.0 mg/kg/injection, schedule: Q01DX009 (ip), vehicle: Klucel (hydroxypropylcellulose) (HPC)
[15] = endpoint: mean survival time, dose: 400.0 mg/kg/injection, schedule: Q01DX009 (ip), vehicle: saline with Tween-80

With `CNC(C)Cc1ccc2c(c1)OCO2` (stereo not given) the T/C (endpoint: mean survival time, dose: 12.5 mg/kg/injection, schedule: Q01DX009 (ip), vehicle: saline) was 105 % of control, the T/C (endpoint: mean survival time, dose: 25.0 mg/kg/injection, schedule: Q01DX009 (ip), vehicle: saline) was 98 % of control and the T/C (endpoint: mean survival time, dose: 25.0 mg/kg/injection, schedule: Q04DX003 (ip), vehicle: saline) was 106 % of control. The T/C [1] was 100 % of control and 104 % of control, the T/C (endpoint: mean survival time, dose: 50.0 mg/kg/injection, schedule: Q04DX003 (ip), vehicle: saline) was 104 % of control and the T/C (endpoint: mean survival time, dose: 75.0 mg/kg/injection, schedule: Q04DX003 (ip), vehicle: saline) was 92 % of control. The T/C [2] was 98 % of control.

With `COc1cc(OC)c(NC(=O)C2CC2)cc1Cl` the T/C [3] was 110 % of control, the T/C [4] was 104 % of control and the T/C [5] was 110 % of control.

For `Cc1cc(NCCCCCCCNc2cc(C)nc3cc(N)ccc23)c2ccc(N)cc2n1`, the T/C (endpoint: median survival time, dose: 1.56 mg/kg/injection, schedule: Q01DX009 (ip), vehicle: water) was 123 % of control, the T/C (endpoint: median survival time, dose: 6.25 mg/kg/injection, schedule: Q01DX009 (ip), vehicle: water) was 154 % of control and the T/C (endpoint: median survival time, dose: 12.5 mg/kg/injection, schedule: Q01DX009 (ip), vehicle: water) was 194 % of control. For the same compound, the T/C (endpoint: median survival time, dose: 25.0 mg/kg/injection, schedule: Q01DX009 (ip), vehicle: water) was 116 % of control.

For `O=C(Nc1cccc(Cl)c1Cl)N1CCN(c2ccccc2)CC1`, the T/C [3] was 92 % of control, the T/C [4] was 96 % of control and the T/C [5] was 97 % of control.

For `CC(=O)[OH2+].CC(=O)[OH2+].[O-]c1ccc2ccccc2c1CN1CCCCC1.[O-]c1ccc2ccccc2c1CN1CCCCC1.[O]=[U+2]=[O].[O]=[U+2]=[O]`, the T/C (endpoint: mean survival time, dose: 5.0 mg/kg/injection, schedule: Q01DX001 (ip), vehicle: other) was 105 % of control and the T/C (endpoint: mean survival time, dose: 10.0 mg/kg/injection, schedule: Q01DX001 (ip), vehicle: other) was 111 % of control.

For `O=C(Nc1ccc(F)cc1)OCCOc1ccc(Br)cc1`, the T/C [3] was 95 % of control, the T/C [4] was 98 % of control and the T/C [5] was 102 % of control.

With `O=C(O)c1n[nH]nc1[N+](=O)[O-]` the T/C (endpoint: mean survival time, dose: 75.0 mg/kg/injection, schedule: Q01DX001 (ip), vehicle: saline) was 96 % of control, the T/C (endpoint: mean survival time, dose: 150.0 mg/kg/injection, schedule: Q01DX001 (ip), vehicle: saline) was 105 % of control and the T/C (endpoint: mean survival time, dose: 300.0 mg/kg/injection, schedule: Q01DX001 (ip), vehicle: saline) was 98 % of control.

`[CH3][Hg][O]C(C)=O` was tested, and the T/C (endpoint: mean survival time, dose: 3.0 mg/kg/injection, schedule: Q01DX009 (ip), vehicle: Klucel (hydroxypropylcellulose) (HPC)) was 86 % of control, the T/C (endpoint: mean survival time, dose: 3.12 mg/kg/injection, schedule: Q04DX003 (ip), vehicle: Klucel (hydroxypropylcellulose) (HPC)) was 104 % of control and the T/C (endpoint: mean survival time, dose: 6.0 mg/kg/injection, schedule: Q01DX009 (ip), vehicle: Klucel (hydroxypropylcellulose) (HPC)) was 91 % of control. The T/C (endpoint: mean survival time, dose: 6.25 mg/kg/injection, schedule: Q04DX003 (ip), vehicle: Klucel (hydroxypropylcellulose) (HPC)) was 96 % of control and the T/C (endpoint: mean survival time, dose: 12.5 mg/kg/injection, schedule: Q04DX003 (ip), vehicle: Klucel (hydroxypropylcellulose) (HPC)) was 96 % of control and 97 % of control.

With `CC1OC(OC2CCC3(C=O)C4CCC5(C)C(C6=CC(=O)OC6)CCC5(O)C4CCC3(O)C2)C(O)C(O)C1O` (stereo not given) the T/C (endpoint: mean survival time, dose: 3.0 mg/kg/injection, schedule: Q01DX001 (ip), vehicle: carboxymethylcellulose (CMC)) was 96 % of control and the T/C (endpoint: mean survival time, dose: 6.0 mg/kg/injection, schedule: Q01DX001 (ip), vehicle: carboxymethylcellulose (CMC)) was 98 % of control.

`CC(C)C(N)C(=O)NO` (stereo not given) was tested, and the T/C [1] was 95 % of control, the T/C [6] was 100 % of control and the T/C [7] was 107 % of control. The T/C [8] was 110 % of control.

With `CC(O)(c1ccccc1)c1ccccc1` the T/C [9] was 95 % of control, the T/C [10] was 101 % of control and the T/C (endpoint: mean survival time, dose: 100.0 mg/kg/injection, schedule: Q04DX003 (ip), vehicle: saline with Tween-80) was 100 % of control. The T/C (endpoint: mean survival time, dose: 200.0 mg/kg/injection, schedule: Q01DX001 (ip), vehicle: saline) was 97 % of control, the T/C (endpoint: mean survival time, dose: 200.0 mg/kg/injection, schedule: Q04DX003 (ip), vehicle: saline with Tween-80) was 100 % of control and the T/C [11] was 97 % of control. The T/C (endpoint: mean survival time, dose: 400.0 mg/kg/injection, schedule: Q04DX003 (ip), vehicle: saline with Tween-80) was 110 % of control.

`Cc1noc(NC(=O)Nc2ccc(Cl)cc2Cl)c1C` was tested, and the T/C (endpoint: mean survival time, dose: 12.5 mg/kg/injection, schedule: Q01DX009 (ip), vehicle: saline with Tween-80) was 86 % of control, the T/C (endpoint: mean survival time, dose: 25.0 mg/kg/injection, schedule: Q01DX009 (ip), vehicle: saline with Tween-80) was 89 % of control and the T/C (endpoint: mean survival time, dose: 50.0 mg/kg/injection, schedule: Q01DX009 (ip), vehicle: saline with Tween-80) was 91 % of control. For the same compound, the T/C [12] was 91 % of control and the T/C [13] was 87 % of control.

For `Nc1cccc(OCCCOc2cccc([N+](=O)[O-])c2)c1`, the T/C [14] was 106 % of control, the T/C [3] was 90 % of control and the T/C [4] was 90 % of control.

With `O=C(O)CC(NCc1ccccc1)C(=O)O` (stereo not given) the T/C [12] was 93 % of control, the T/C [13] was 91 % of control and the T/C [15] was 93 % of control.

In the case of `Nc1ccc(C(=O)Nc2ccc(NC(=O)Nc3ccc(NC(=O)c4ccc(N)cc4)c(S(=O)(=O)O)c3)cc2S(=O)(=O)O)cc1`, the T/C (endpoint: mean survival time, dose: 60.0 mg/kg/injection, schedule: Q01DX Z (ip), vehicle: carboxymethylcellulose (CMC)) is reported as 96 % of control, the T/C (endpoint: mean survival time, dose: 120.0 mg/kg/injection, schedule: Q01DX Z (ip), vehicle: carboxymethylcellulose (CMC)) is reported as 98 % of control and the T/C (endpoint: mean survival time, dose: 240.0 mg/kg/injection, schedule: Q01DX Z (ip), vehicle: carboxymethylcellulose (CMC)) is reported as 95 % of control. The T/C (endpoint: mean survival time, dose: 240.0 mg/kg/injection, schedule: Q01DX Z (oral), vehicle: carboxymethylcellulose (CMC)) was 106 % of control, the T/C (endpoint: mean survival time, dose: 480.0 mg/kg/injection, schedule: Q01DX Z (ip), vehicle: carboxymethylcellulose (CMC)) was 95 % of control and the T/C (endpoint: mean survival time, dose: 480.0 mg/kg/injection, schedule: Q01DX Z (oral), vehicle: carboxymethylcellulose (CMC)) was 112 % of control. For the same compound, the T/C (endpoint: mean survival time, dose: 960.0 mg/kg/injection, schedule: Q01DX Z (oral), vehicle: carboxymethylcellulose (CMC)) was 93 % of control.

`O=C1CCCC(=O)NNC(=O)Nc2ccc(cc2)-c2ccc(cc2)NC(=O)NN1` was tested, and the T/C [9] was 104 % of control, the T/C [10] was 104 % of control and the T/C [11] was 96 % of control.

In the case of `CCCC(=O)OC(C(=O)OCC)c1ccccc1` (stereo not given), the T/C [12] is reported as 98 % of control, the T/C [13] is reported as 106 % of control and the T/C [15] is reported as 96 % of control.

With `NC(N)=NCCCC(=O)O` the T/C [6] was 92 % of control, the T/C [2] was 110 % of control and the T/C [7] was 94 % of control. For the same compound, the T/C (endpoint: mean survival time, dose: 200.0 mg/kg/injection, schedule: Q04DX003 (ip), vehicle: saline) was 108 % of control, the T/C [8] was 92 % of control and the T/C (endpoint: mean survival time, dose: 400.0 mg/kg/injection, schedule: Q04DX003 (ip), vehicle: saline) was 103 % of control.

For `NC(=O)CCC(NC(=O)Cc1ccccc1)C(=O)O` (stereo not given), the T/C (endpoint: mean survival time, dose: 18.75 mg/kg/injection, schedule: Q01DX001 (ip), vehicle: Klucel (hydroxypropylcellulose) (HPC)) was 92 % of control, the T/C (endpoint: mean survival time, dose: 37.5 mg/kg/injection, schedule: Q01DX001 (ip), vehicle: Klucel (hydroxypropylcellulose) (HPC)) was 100 % of control and the T/C (endpoint: mean survival time, dose: 75.0 mg/kg/injection, schedule: Q01DX001 (ip), vehicle: Klucel (hydroxypropylcellulose) (HPC)) was 97 % of control.

`O=[N+]([O-])c1cc(Cl)ccc1S(=O)(=O)c1ccccc1` was tested, and the T/C [14] was 99 % of control, the T/C [3] was 99 % of control and the T/C [4] was 108 % of control.

With `O=C(N/N=C\c1ccc(O)cc1O)c1ccco1` the T/C (endpoint: mean survival time, dose: 100.0 mg/kg/injection, schedule: Q01DX001 (ip), vehicle: other) was 90 % of control, the T/C (endpoint: mean survival time, dose: 200.0 mg/kg/injection, schedule: Q01DX001 (ip), vehicle: other) was 93 % of control and the T/C (endpoint: mean survival time, dose: 400.0 mg/kg/injection, schedule: Q01DX001 (ip), vehicle: other) was 96 % of control.

For `Cc1c(Cl)cccc1NC(=O)c1ccc([N+](=O)[O-])cc1`, the T/C [12] was 91 % of control, the T/C [13] was 89 % of control and the T/C [15] was 89 % of control.
